Measured values taken from patent US8030315B2, “DPP-IV inhibitor including beta-amino group, preparation method thereof and pharmaceutical composition containing the same for preventing and treating diabetes or obesity” (Dong-A Pharm. Co., Ltd., priority 2007, dated 2011).

What was measured:
C57BL/6 mice = experiment: Oral glucose tolerance test (OGTT); type: in vivo; details: dose of 1 mg/kg, compared to the control group
Description: Blood was collected from caudal veins of animals in the morning on the day of the experiment and a blood glucose level was measured with an Accu-Chek Active Blood Glucose Meter (Roche Diagnostics). […] Blood collection was made at designated time points—just prior to drug administration, just prior to glucose administration, and 5, 15, 30, 60 and 90 min after glucose administration.

[1] = In vivo kinetic experiments (half-life); details: SD, rat, blood, po, 10 mg/kg

CCOC[C@@H]1C(=O)NCCN1C(=O)C[C@H](N)Cc1cc(F)c(F)cc1F.Cl [Example 3, (R)-4-[(R)-3-amino-4-(2,4,5-trifluorophenyl)butanoyl]-3-(ethoxymethyl)piperazin-2-one hydrochloride]
blood glucose-lowering effects (C57BL/6 mice): 52%
half-life [1]: 7.6 h

CC(C)(C)OC[C@@H]1C(=O)NCCN1C(=O)C[C@H](N)Cc1cc(F)c(F)cc1F.Cl [Example 1, (R)-4-[(R)-3-amino-4-(2,4,5-trifluorophenyl)butanoyl]-3-(t-butoxymethyl)piperazin-2-one hydrochloride]
blood glucose-lowering effects (C57BL/6 mice): 54%
half-life [1]: 7.9 h

N[C@@H](CC(=O)N1CCn2c(nnc2C(F)(F)F)C1)Cc1cc(F)c(F)cc1F [MK-0431, reference compound]
half-life [1]: 4.8 h

CC(C)(C)OC[C@@H]1C(=O)NCCN1C(=O)C[C@H](N)Cc1cc(F)c(F)cc1F.O=C(O)C(O)C(O)C(=O)O [Example 12, (R)-4-[(R)-3-amino-4-(2,4,5-trifluorophenyl)butanoyl]-3-(t-butoxymethyl)piperazin-2-one tartrate]
blood glucose-lowering effects (C57BL/6 mice): 62%
half-life [1]: 5.5 h
